{
  "source": "paper PMC11547388",
  "about": "“Toxicokinetics and Tissue Distribution of the Hepatotoxic Triterpenoid Saponin Pterocephin A in Rats Using the Ultra-Performance Liquid Chromatography–Tandem Mass Spectrometry (UPLC-MS/MS) Method” (Molecules, 2024)",
  "origin": "cited, not measured here",
  "parameters": "method as in PMID 37253396",
  "conditions": "in vivo, HPLC-QQQ-MS/MS",
  "data": [
    {"smiles": "C=C(C)[C@@H]1CC[C@]2(C(=O)O[C@@H]3O[C@H](CO[C@@H]4O[C@H](CO)[C@@H](O[C@@H]5O[C@@H](C)[C@H](O)[C@@H](O)[C@H]5O)[C@H](O)[C@H]4O)[C@@H](O)[C@H](O)[C@H]3O)CC[C@]3(C)[C@H](CC[C@@H]4[C@@]5(C)CC[C@H](O[C@@H]6OC[C@H](O)[C@H](O)[C@H]6O[C@@H]6O[C@@H](C)[C@H](O)[C@@H](O)[C@H]6O)[C@@](C)(CO)[C@@H]5CC[C@]43C)[C@@H]12", "note": "[AB4, anemoside B4]", "values": [
      {"measurement": "bioavailability", "result": "less than 1%"}
    ]}
  ]
}
